The values that follow come from patent publication US20170157135A1 (Novogen Limited, priority 2013, published 2017).

Holding throughout (type): cell-based
The test system of test [1] is SK-N-SH neuroblastoma cells. Description: Anti-proliferative assay (cell-titre luminescent), SK-N-SH. The settings on record: Homo sapiens, 72 hours, luminescence. The procedure: (§1) The ability of compounds 2002, 2009 and 2013-2064 to inhibit the proliferation of cancer cells representative of neuroblastoma, melanoma, prostate cancer, colorectal cancer, non-small cell lung carcinoma, and triple negative breast cancer was assessed. These studies were conducted by contract research (GVK-BIO). Briefly, a pre-determined number of cells as calculated from cell growth assays for each of the cell lines employed were seeded into their respective culture medium (using ATCC culture parameters—http://www.atcc.org) and cultured for 24 h at 37° C. and 5% CO2 in 96-well culture plates. Once attached, each cell line was then exposed to various concentrations of each respective analogue (30, 10, 3, 1, 0.3 and 0.1 μM), cultured for a further 72 hours and exposed to cell-titre luminescent reagent (100 μL/well) for a further 30 minutes). Luminescence was captured using an EnVision multilabel reader and the data for each analogue concentration compared against no treatment control. Cell viability was normalized to control (vehicle alone) and dose-response curves, and half maximal effective concentration (EC50) values were determined using Graph Pad Prism 6 (nonlinear regression sigmoidal dose-response variable slope).

Test [2] deals with SK-Mel-28 melanoma cells. The experiment in a line: Anti-proliferative assay (cell-titre luminescent), SK-Mel-28. The settings on record: Homo sapiens; SK-Mel-28, 72 hours, luminescence. How it is done: as §1
The test system of test [3] is DU145 prostate cancer cells. The experiment in a line: Anti-proliferative assay (cell-titre luminescent), DU145. The conditions noted are these: Homo sapiens, DU-145; DU145, 72 hours, luminescence. How it is done:
as §1

For test [4], the system named is PC3 prostate cancer cells. The experiment in a line: Anti-proliferative assay (cell-titre luminescent), PC3. The settings on record: PC3, 72 hours, luminescence. The procedure:
as §1

Test [5] relates to CaCo2 colorectal cancer cells. The experiment in a line: Anti-proliferative assay (cell-titre luminescent), CaCo2. The settings on record: Homo sapiens, Caco-2; CaCo2, 72 hours, luminescence. The procedure:
as §1

The subject of test [6] is A549 lung (NSLC) cells. The experiment in a line: Anti-proliferative assay (cell-titre luminescent), A549. The conditions noted are these: Homo sapiens; A549, 72 hours, luminescence. The procedure: as §1
Test [7] concerns MDA-MB-231 breast cancer cells. Description: Anti-proliferative assay (cell-titre luminescent), MDA-MB-231. The conditions noted are these: Homo sapiens; MDA-MB-231, 72 hours, luminescence. How it is done: as §1

As for `COc1ccc2c(c1)c(/C=C/C(=O)N1CCN(CCc3ccc(F)cc3)CC1)c(C)n2CCCN1CCN(C)CC1` [Compound 2029, (E)-1-(4-(4-fluorophenethyl)piperazin-1-yl)-3-(5-methoxy-2-methyl-1-(3-(4-methylpiperazin-1-yl)propyl)-1H-indol-3-yl)prop-2-en-1-one], the IC50 in test [1] is 2.8 µM; in test [2], 5.7 µM; in test [3] it was 4.2 µM; in test [4], 2.9 µM; in test [5] it was 4.4 µM; in test [6], 4.5 µM. In test [7], this compound had an IC50 of 3.3 µM.
As for `COc1ccc(CCN2CCN(C(=O)/C=C/c3c(C)n(CCCN4CCN(C)CC4)c4ccc(OC)cc34)CC2)cc1` [Compound 2030, (E)-3-(5-methoxy-2-methyl-1-(3-(4-methylpiperazin-1-yl)propyl)-1H-indol-3-yl)-1-(4-(4-methoxyphenethyl)piperazin-1-yl)prop-2-en-1-one], the IC50 in test [1] is 3.6 µM; in test [2], 3.4 µM; in test [3], 7.9 µM; in test [4] it was 4 µM; in test [5] it was 5.4 µM; in test [6], 7.9 µM. Moreover, half-maximal inhibition in test [7] (IC50) required 4.3 µM.
As to `COc1ccc2c(c1)c(/C=C/C(=O)N1CCN(CCc3ccc4c(c3)OCO4)CC1)c(C)n2CCCN1CCN(C)CC1` [Compound 2031, (E)-1-(4-(2-(benzo[d][1,3]dioxol-5-yl)ethyl)piperazin-1-yl)-3-(5-methoxy-2-methyl-1-(3-(4-methylpiperazin-1-yl)propyl)-1H-indol-3-yl)prop-2-en-1-one], the IC50 in test [1] amounted to 3.7 µM; in test [2], 3.9 µM; in test [3] it was 6.2 µM; in test [4] it was 2.1 µM; in test [5] it was 3.7 µM; in test [6] it was 4.2 µM. Also, in test [7], the IC50 worked out at 5.2 µM.
Regarding `COc1ccc2c(c1)c(/C=C/C(=O)N1CCN(CCc3cccc(F)c3)CC1)c(C)n2CCCN1CCN(C)CC1` [Compound 2032, (E)-1-(4-(3-fluorophenethyl)piperazin-1-yl)-3-(5-methoxy-2-methyl-1-(3-(4-methylpiperazin-1-yl)propyl)-1H-indol-3-yl)prop-2-en-1-one], the half-inhibitory concentration (IC50) in test [1] worked out at 4.7 µM; in test [2], 4.3 µM; in test [3], 7.7 µM; in test [4], 6.8 µM; in test [5] it was 5.6 µM; in test [6] it was 9 µM. In test [7], the half-maximal inhibitory concentration (IC50) turned out to be 4.9 µM.
In the case of `COc1cccc(CCN2CCN(C(=O)/C=C/c3c(C)n(CCCN4CCN(C)CC4)c4ccc(OC)cc34)CC2)c1` [Compound 2033, (E)-3-(5-methoxy-2-methyl-1-(3-(4-methylpiperazin-1-yl)propyl)-1H-indol-3-yl)-1-(4-(3-methoxyphenethyl)piperazin-1-yl)prop-2-en-1-one], the IC50 is 3.3 µM in test [1]; 4.2 µM in test [2]; 18.6 µM in test [3]; 6.8 µM in test [4]; 4.2 µM in test [5]; 10.8 µM in test [6]. The compound also yielded an IC50 in test [7] of 4.5 µM.
Regarding `COc1ccc2c(c1)c(/C=C/C(=O)N1CCN(CCc3ccccc3)CC1)c(C)n2CCCN1CCN(C)CC1` [Compound 2034, (E)-3-(5-methoxy-2-methyl-1-(3-(4-methylpiperazin-1-yl)propyl)-1H-indol-3-yl)-1-(4-phenethylpiperazin-1-yl)prop-2-en-1-one], the IC50 in test [1] turned out to be 10.8 µM; in test [2], 16.2 µM; in test [3] it was 17.2 µM; in test [4] it was 11.5 µM; in test [5], 8.1 µM; in test [6], 51.3 µM. The compound also returned a half-inhibitory concentration (IC50) in test [7] of 13.7 µM.
On to `CCOc1ccc2c(c1)c(/C=C/C(=O)N1CCN(CCc3ccc(F)cc3)CC1)c(C)n2CCCN(C)C` [Compound 2035, (E)-3-(1-(3-(dimethylamino)propyl)-5-ethoxy-2-methyl-1H-indol-3-yl)-1-(4-(4-fluorophenethyl)piperazin-1-yl)prop-2-en-1-one], for which the IC50 in test [1] worked out at 3.3 µM; in test [2] it was 3.2 µM; in test [3], 6.2 µM; in test [4], 5.6 µM; in test [5], 5.1 µM; in test [6], 8.3 µM. Further, the IC50 in test [7] was determined as 3 µM.
As to `CCOc1ccc2c(c1)c(/C=C/C(=O)N1CCN(CCc3ccc(F)cc3)CC1)c(C)n2CCCN(CC)CC` [Compound 2036, (E)-3-(1-(3-(diethylamino)propyl)-5-ethoxy-2-methyl-1H-indol-3-yl)-1-(4-(4-fluorophenethyl)piperazin-1-yl)prop-2-en-1-one], the IC50 in test [1] turned out to be 1.5 µM; in test [2] it was 3.2 µM; in test [3], 4.7 µM; in test [4], 4.9 µM; in test [5], 5.1 µM; in test [6], 4.3 µM. The same compound came in with a concentration for half-maximal inhibition (IC50) in test [7] of 4.4 µM.
With `CCOc1ccc2c(c1)c(/C=C/C(=O)N1CCN(CCc3ccc(F)cc3)CC1)c(C)n2CCCN1CCN(C)CC1` [Compound 2037, (E)-3-(5-ethoxy-2-methyl-1-(3-(4-methylpiperazin-1-yl)propyl)-1H-indol-3-yl)-1-(4-(4-fluorophenethyl)piperazin-1-yl)prop-2-en-1-one], the concentration for half-maximal inhibition (IC50) in test [1] is 3.1 µM; in test [2] it was 2.7 µM; in test [3], 5 µM; in test [4], 8.7 µM; in test [5], 4.8 µM; in test [6] it was 6.6 µM. Also, half-maximal inhibition in test [7] (IC50) was put at 5 µM.
Take `Cc1c(C(=O)N2CCN(CCc3ccc(F)cc3)CC2)c2ccccc2n1CCCN(C)C` [Compound 2038, (1-(3-(dimethylamino)propyl)-2-methyl-1H-indol-3-yl)(4-(4-fluorophenethyl)piperazin-1-yl)methanone]: the IC50 in test [1], in test [2], in test [3], in test [4], in test [5] and in test [6] was above 30 µM throughout. For the same compound, the IC50 in test [7] is above 30 µM.
As to `COc1ccc(CCN2CCN(C(=O)c3c(C)n(CCCN(C)C)c4ccccc34)CC2)cc1` [Compound 2039, (1-(3-(dimethylamino)propyl)-2-methyl-1H-indol-3-yl)(4-(4-methoxyphenethyl)piperazin-1-yl)methanone], the IC50 turned out to be 12.6 µM in test [1]; 11 µM in test [2]; 72.6 µM in test [3]; 7.6 µM in test [4]; 4.8 µM in test [5]; 44 µM in test [6]. Moreover, it took 16.6 µM to reach half-maximal inhibition in test [7] (IC50).
For `Cc1c(C(=O)N2CCN(CCc3ccc4c(c3)OCO4)CC2)c2ccccc2n1CCCN(C)C` [Compound 2040, (4-(2-(benzo[d][1,3]dioxol-5-yl)ethyl)piperazin-1-yl)(1-(3-(dimethylamino)propyl)-2-methyl-1H-indol-3-yl)methanone], the half-maximal inhibitory concentration (IC50) in test [1] is 26.4 µM; in test [2], 16.4 µM; in test [3], above 30 µM; in test [4], above 30 µM; in test [5], above 30 µM; in test [6], above 30 µM. The half-maximal inhibitory concentration (IC50) in test [7] was above 30 µM.
In the case of `Cc1c(C(=O)N2CCN(CCc3cccc(F)c3)CC2)c2ccccc2n1CCCN(C)C` [Compound 2041], the IC50 in test [1] was 13.2 µM; in test [2] it was 17.1 µM; in test [3] it was above 30 µM; in test [4] it was above 30 µM; in test [5], above 30 µM; in test [6] it was above 30 µM. This compound came in with an IC50 in test [7] above 30 µM.
As to `COc1cccc(CCN2CCN(C(=O)c3c(C)n(CCCN(C)C)c4ccccc34)CC2)c1` [Compound 2042, (1-(3-(dimethylamino)propyl)-2-methyl-1H-indol-3-yl)(4-(3-methoxyphenethyl)piperazin-1-yl)methanone], the IC50 in test [1], in test [2], in test [3], in test [4], in test [5] and in test [6] was above 30 µM each time. This compound also displayed a concentration for half-maximal inhibition (IC50) in test [7] above 30 µM.
As to `Cc1c(C(=O)N2CCN(CCc3ccccc3)CC2)c2ccccc2n1CCCN(C)C` [Compound 2043, (1-(3-(dimethylamino)propyl)-2-methyl-1H-indol-3-yl)(4-phenethylpiperazin-1-yl)methanone], the IC50 in test [1] was 17.4 µM; in test [2], 17.2 µM; in test [3], above 30 µM; in test [4], above 30 µM; in test [5], above 30 µM; in test [6], above 30 µM. The compound further showed a concentration for half-maximal inhibition (IC50) in test [7] above 30 µM.
As for `COc1ccc2c(c1)c(C(=O)N1CCN(CCc3ccc(F)cc3)CC1)c(C)n2CCCN(C)C` [Compound 2044, (1-(3-(dimethylamino)propyl)-5-methoxy-2-methyl-1H-indol-3-yl)(4-(4-fluorophenethyl)piperazin-1-yl)methanone], the IC50 turned out to be 6.6 µM in test [1]; 6.6 µM in test [2]; 10.1 µM in test [3]; 11 µM in test [4]; 11.9 µM in test [5]; 12.2 µM in test [6]. This compound also came in with a 50% inhibitory concentration (IC50) in test [7] of 20.4 µM.
